Laboratory results published in ChEMBL document CHEMBL4311957, “Recent advances in natural antifungal flavonoids and their derivatives” (Bioorg Med Chem Lett, 2019).
Values after ≈ are worked out from the molar mass of the structure shown.

Columns and labels:
Candida parapsilosis [1] = assay: Antifungal activity against Candida parapsilosis ATCC 22019 after 18 hrs by two-fold microdilution method; assay type: functional; settings: Lodderomyces parapsilosis, ATCC 22019, 18 h
Candida albicans [2] = assay: Antifungal activity against Candida albicans ATCC 90028 after 18 hrs by two-fold microdilution method; assay type: functional; settings: ATCC 90028, 18 h
Nakaseomyces glabratus [3] = assay: Antifungal activity against Candida glabrata ATCC 90030 after 18 hrs by two-fold microdilution method; assay type: functional; settings: ATCC 90030, 18 h
Nakaseomyces glabratus [4] = assay: Antifungal activity against Candida glabrata after 48 hrs by checkerboard method; assay type: functional
Candida albicans [5] = assay: Antifungal activity against Candida albicans clinical isolates after 48 hrs by checkerboard method; assay type: functional
Candida albicans [6] = assay: Antifungal activity against Candida albicans SC 5314 after 48 hrs by checkerboard method; assay type: functional; settings: SC 5314, 48 h
Candida albicans [7] = assay: Antifungal activity against Candida albicans after 48 hrs by agar disc-diffusion method; assay type: functional
Candida parapsilosis [8] = assay: Antifungal activity against Candida parapsilosis ATCC 22019 by ELISA; assay type: functional; settings: Lodderomyces parapsilosis
Malassezia furfur = assay: Antifungal activity against Malassezia furfur KCTC 7744 by ELISA; assay type: functional
Trichosporon beigelii = assay: Antifungal activity against Trichosporon beigelii KCTC 7707 by ELISA; assay type: functional
Trichophyton rubrum [9] = assay: Antifungal activity against Trichophyton rubrum KCTC 6345 by ELISA; assay type: functional
Candida albicans [10] = assay: Antifungal activity against Candida albicans ATCC 90028 by ELISA; assay type: functional
Nakaseomyces glabratus [11] = assay: Antifungal activity against Candida glabrata 493 by microdilution method; assay type: functional
Candida tropicalis [12] = assay: Antifungal activity against Candida tropicalis 166 by microdilution method; assay type: functional
Trichophyton rubrum [13] = assay: Antifungal activity against Trichophyton rubrum deltaTruMDR2 by CLSI-based microdilution method; assay type: functional
Nakaseomyces glabratus [14] = assay: Antifungal activity against Candida glabrata 482 by microdilution method; assay type: functional
Candida tropicalis [15] = assay: Antifungal activity against Candida tropicalis CCC 131-2000 after 48 hrs by CLSI-based broth microdilution method; assay type: functional; settings: CCC 131-2000, 48 h
Candida albicans [16] = assay: Antifungal activity against Candida albicans 53 by microdilution method; assay type: functional
Candida albicans [17] = assay: Antifungal activity against Candida albicans ATCC 10231 after 48 hrs by CLSI-based broth microdilution method; assay type: functional; settings: ATCC 10231, 48 h
Cryptococcus neoformans [18] = assay: Antifungal activity against Cryptococcus neoformans by microdilution method; assay type: functional
Candida albicans [19] = assay: Antifungal activity against Candida albicans 501 by microdilution method; assay type: functional
Trichophyton rubrum [20] = assay: Antifungal activity against Trichophyton rubrum ATCC MYA3108 by CLSI-based microdilution method; assay type: functional
Nakaseomyces glabratus [21] = assay: Antifungal activity against Candida glabrata 587 by microdilution method; assay type: functional
Candida albicans [22] = assay: Antifungal activity against Candida albicans ATCC 10231 by microdilution method; assay type: functional
Candida parapsilosis [23] = assay: Antifungal activity against Candida parapsilosis 96 by microdilution method; assay type: functional; settings: Lodderomyces parapsilosis
Candida albicans [24] = assay: Antifungal activity against Candida albicans 498 by microdilution method; assay type: functional
Nakaseomyces glabratus [25] = assay: Antifungal activity against Candida glabrata 531 by microdilution method; assay type: functional
Nakaseomyces glabratus [26] = assay: Antifungal activity against Candida glabrata 507 by microdilution method; assay type: functional
Nakaseomyces glabratus [27] = assay: Antifungal activity against Candida glabrata 510 by microdilution method; assay type: functional
Pichia kudriavzevii [28] = assay: Antifungal activity against Candida krusei 168 by microdilution method; assay type: functional
Candida tropicalis [29] = assay: Antifungal activity against FLC-resistant Candida tropicalis; assay type: functional
Cryptococcus neoformans [30] = assay: Antifungal activity against Cryptococcus neoformans by CLSI-based microdilution method; assay type: functional
Candida tropicalis [31] = assay: Antifungal activity against FLC-resistant Candida tropicalis in presence of FLC; assay type: functional
Pichia kudriavzevii [32] = assay: Antifungal activity against Candida krusei ATCC 6258 after 18 hrs by two-fold microdilution method; assay type: functional; settings: ATCC 6258, 18 h
Aspergillus niger = assay: Fungicidal activity against Aspergillus niger ATCC 9029 after 48 hrs; assay type: functional; settings: ATCC 9029, 48 h
Aspergillus fumigatus = assay: Fungicidal activity against Aspergillus fumigatus ATTC 26934 after 48 hrs; assay type: functional; settings: ATTC 26934, 48 h
Aspergillus flavus = assay: Fungicidal activity against Aspergillus flavus ATCC 9170 after 48 hrs; assay type: functional; settings: ATCC 9170, 48 h
Saccharomyces cerevisiae = assay: Fungicidal activity against Saccharomyces cerevisiae ATCC 9763 after 48 hrs; assay type: functional; settings: ATCC 9763, 48 h
Nannizzia gypsea = assay: Fungicidal activity against Microsporum gypseum CCC 115 after 48 hrs; assay type: functional; settings: CCC 115, 48 h
Cryptococcus neoformans [33] = assay: Fungicidal activity against Cryptococcus neoformans ATCC 32264 after 48 hrs; assay type: functional; settings: ATCC 32264, 48 h
Candida albicans [34] = assay: Fungicidal activity against Candida albicans ATCC 10231 after 48 hrs; assay type: functional; settings: ATCC 10231, 48 h
[35] = system: Trichophyton mentagrophytes; assay: Fungicidal activity against Trichophyton mentagrophytes ATCC 9972 after 48 hrs; assay type: functional; settings: ATCC 9972, 48 h
Trichophyton rubrum [36] = assay: Fungicidal activity against Trichophyton rubrum CCC 110 after 48 hrs; assay type: functional; settings: CCC 110, 48 h
Cryptococcus neoformans [37] = assay: Fungicidal activity against Cryptococcus neoformans clinical isolate after 48 hrs; assay type: functional
Cryptococcus neoformans [38] = assay: Antifungal activity against Cryptococcus neoformans ATCC 90112 after 48 hrs by CLSI-based method; assay type: functional; settings: ATCC 90112, 48 h
Candida albicans [39] = assay: Antifungal activity against Candida albicans; assay type: functional, organism-based
Trichophyton = assay: Antifungal activity against Trichophyton; assay type: functional

## CC(C)=CCc1c(O)cc(O)c2c(=O)cc(-c3ccc(O)cc3)oc12
Candida parapsilosis [1]
  MIC: 15.6 µg/mL (≈ 46.2 µM)
Candida albicans [2]
  MIC: 15.6 µg/mL (≈ 46.2 µM)
Nakaseomyces glabratus [3]
  MIC: 15.6 µg/mL (≈ 46.2 µM)

## O=C(O)[C@H]1O[C@@H](Oc2cc3oc(-c4ccccc4)cc(=O)c3c(O)c2O)[C@H](O)[C@@H](O)[C@@H]1O [BAICALIN]
Nakaseomyces glabratus [4]
  MIC: 250 µg/mL
Candida albicans [5]
  MIC: 500 µg/mL
Candida albicans [6]
  MIC: 500 µg/mL

## O=C(CN1CCCCC1)Nc1ccc(C(=O)/C=C/c2ccc(Cl)cc2)cc1
Candida albicans [7]
  MIC: 2 µg/mL (≈ 5.22 µM)

## O=c1c(O[C@@H]2O[C@H](CO)[C@@H](O)[C@H](O)[C@H]2O)c(-c2ccc(O)c(O)c2)oc2cc(O)cc(O)c12 [ISOQUERCETIN]
Candida parapsilosis [8]
  MIC: 2.5 µg/mL (≈ 5.38 µM)
Malassezia furfur
  MIC: 2.5 to 5 µg/mL (≈ 5.38 to 10.8 µM)
Trichosporon beigelii
  MIC: 5 µg/mL (≈ 10.8 µM)
Trichophyton rubrum [9]
  MIC: 2.5 µg/mL (≈ 5.38 µM)
Candida albicans [10]
  MIC: 2.5 µg/mL (≈ 5.38 µM)

## O=c1c(O)c(-c2ccccc2)oc2cc(O)cc(O)c12 [GALANGIN]
Nakaseomyces glabratus [11]
  MIC: 15.6 to 62.5 µg/mL (≈ 57.7 to 231 µM)
Candida tropicalis [12]
  MIC: > 83 µg/mL
Trichophyton rubrum [13]
  MIC: > 1000 µg/mL
Nakaseomyces glabratus [14]
  MIC: 15.6 to 62.5 µg/mL (≈ 57.7 to 231 µM)
Candida tropicalis [15]
  MIC: 31.2 µg/mL (≈ 115 µM)
Candida albicans [16]
  MIC: > 83 µg/mL
Candida albicans [17]
  MIC: 31.2 µg/mL (≈ 115 µM)
Cryptococcus neoformans [18]
  MIC: 31.2 µg/mL (≈ 115 µM)
Candida albicans [19]
  MIC: > 83 µg/mL
Trichophyton rubrum [20]
  MIC: > 1000 µg/mL
Nakaseomyces glabratus [21]
  MIC: 15.6 to 62.5 µg/mL (≈ 57.7 to 231 µM)
Candida albicans [22]
  MIC: > 83 µg/mL
Candida parapsilosis [23]
  MIC: > 83 µg/mL
Candida albicans [24]
  MIC: > 83 µg/mL
Nakaseomyces glabratus [25]
  MIC: 15.6 to 62.5 µg/mL (≈ 57.7 to 231 µM)
Nakaseomyces glabratus [26]
  MIC: 15.6 to 62.5 µg/mL (≈ 57.7 to 231 µM)
Nakaseomyces glabratus [27]
  MIC: 15.6 to 62.5 µg/mL (≈ 57.7 to 231 µM)
Pichia kudriavzevii [28]
  MIC: > 83 µg/mL

## O=c1c(O)c(-c2ccc(O)c(O)c2)oc2cc(O)cc(O)c12 [QUERCETIN]
Nakaseomyces glabratus [11]
  MIC: 7.8 to 15.8 µg/mL (≈ 25.8 to 52.3 µM)
Candida tropicalis [29]
  MIC: ≤ 0.5 µg/mL
Candida tropicalis [12]
  MIC: > 83 µg/mL
Cryptococcus neoformans [30]
  MIC: > 125 µg/mL
Trichophyton rubrum [13]
  MIC: 125 µg/mL (≈ 414 µM)
Nakaseomyces glabratus [14]
  MIC: 7.8 to 15.8 µg/mL (≈ 25.8 to 52.3 µM)
Candida albicans [16]
  MIC: > 83 µg/mL
Candida albicans [19]
  MIC: > 83 µg/mL
Trichophyton rubrum [20]
  MIC: 125 µg/mL (≈ 414 µM)
Nakaseomyces glabratus [21]
  MIC: 7.8 to 15.8 µg/mL (≈ 25.8 to 52.3 µM)
Candida albicans [22]
  MIC: > 83 µg/mL
Candida parapsilosis [23]
  MIC: > 83 µg/mL
Candida albicans [24]
  MIC: > 83 µg/mL
Candida tropicalis [31]
  MIC: 16 µg/mL
Nakaseomyces glabratus [25]
  MIC: 7.8 to 15.8 µg/mL (≈ 25.8 to 52.3 µM)
Nakaseomyces glabratus [26]
  MIC: 7.8 to 15.8 µg/mL (≈ 25.8 to 52.3 µM)
Nakaseomyces glabratus [27]
  MIC: 7.8 to 15.8 µg/mL (≈ 25.8 to 52.3 µM)
Pichia kudriavzevii [28]
  MIC: > 83 µg/mL

## CC1(C)C=Cc2c(cc(O)c3c(=O)c(-c4ccc(O)cc4)coc23)O1 [DERRONE]
Candida parapsilosis [1]
  MIC: 7.81 µg/mL (≈ 23.2 µM)
Candida albicans [2]
  MIC: 7.81 µg/mL (≈ 23.2 µM)
Nakaseomyces glabratus [3]
  MIC: 7.81 µg/mL (≈ 23.2 µM)
Pichia kudriavzevii [32]
  MIC: 7.81 µg/mL (≈ 23.2 µM)

## CN(C)CCCOc1cc(/C=C/C(=O)c2ccc(Cl)cc2)ccc1O
Aspergillus niger
  MFC: 31.2 µg/mL (≈ 86.8 µM)
Aspergillus fumigatus
  MFC: 31.2 µg/mL (≈ 86.8 µM)
Aspergillus flavus
  MFC: 31.2 µg/mL (≈ 86.8 µM)
Saccharomyces cerevisiae
  MFC: 31.2 µg/mL (≈ 86.8 µM)
Nannizzia gypsea
  MFC: 31.2 µg/mL (≈ 86.8 µM)
Cryptococcus neoformans [33]
  MFC: 31.2 µg/mL (≈ 86.8 µM)
Candida albicans [34]
  MFC: 31.2 µg/mL (≈ 86.8 µM)
[35]
  MFC: 31.2 µg/mL (≈ 86.8 µM)
Trichophyton rubrum [36]
  MFC: 31.2 µg/mL (≈ 86.8 µM)
Cryptococcus neoformans [37]
  MFC: 31.2 µg/mL (≈ 86.8 µM)

## C[C@@H]1[C@H](O)[C@@H](C)/C=C/C=C/C=C/C=C/C=C/C=C/C=C/[C@H](O[C@@H]2O[C@H](C)[C@@H](O)[C@H](N)[C@@H]2O)C[C@@H]2O[C@](O)(C[C@@H](O)C[C@@H](O)[C@H](O)CC[C@@H](O)C[C@@H](O)CC(=O)O[C@H]1C)C[C@H](O)[C@H]2C(=O)O [AMPHOTERICIN B]
Cryptococcus neoformans [38]
  MIC: 0.03 µg/mL (≈ 0.0325 µM)

## Cc1c(O)c2c(c3c1OC(C)(C)C=C3)O[C@H](c1ccc(O)c(O)c1)CC2=O
Candida albicans [39]
  MIC: 1.96 µg/mL (≈ 5.32 µM)
Trichophyton
  MIC: 1.95 µg/mL (≈ 5.29 µM)
